Assay results published in ChEMBL document CHEMBL5126603, “Discovery of Clinical Candidate CHF-6366: A Novel Super-soft Dual Pharmacology Muscarinic Antagonist and β2 Agonist (MABA) for the Inhaled Treatment of Respiratory Diseases” (J Med Chem, 2022).

Key:
[1] = Metabolic stability in human lung S9 fraction assessed as half life at 1 uM measured after 0 to 60 mins in presence of NADPH by LC-MS/MS analysis; format: ADME, subcellular; settings: time 0-60 min
[2] = Metabolic stability in human plasma assessed as half life at 5 uM measured upto 120 mins by LC-MS/MS analysis; format: ADME, cell-free
[3] = Metabolic stability in rat plasma assessed as half life at 5 uM measured upto 120 mins by LC-MS/MS analysis; format: ADME, cell-free
[4] = Metabolic stability in Dunkin-Hartley guinea pig plasma assessed as half life at 5 uM measured upto 120 mins by LC-MS/MS analysis; format: ADME, cell-free, Cavia porcellus
Trachea [5] = test: In vivo bifunctional antagonist activity at muscarinic M3 receptor /agonist activity at beta-2 adrenoceptor in Dunkin-Hartley guinea pig trachea assessed as time duration for inhibition of carbachol induced contraction measured […]; format: functional, Cavia porcellus
Trachea [6] = test: In vivo bifunctional antagonist activity at muscarinic M3 receptor /agonist activity at beta-2 adrenoceptor in Dunkin-Hartley guinea pig trachea assessed as inhibition of carbachol induced contraction; format: functional, tissue-based; settings: Cavia porcellus
[7] = Metabolic stability in rat lung S9 fraction assessed as half life at 1 uM measured after 0 to 60 mins in presence of NADPH by LC-MS/MS analysis; format: ADME, subcellular; settings: time 0-60 min
[8] = Metabolic stability in human hepatocytes assessed as clearance at 1 uM measured per 10^6 cells and incubated upto 90 mins by LC-MS/MS analysis; format: ADME, cell-based, Hepatocyte; settings: read-out: CLH
[9] = Metabolic stability in Dunkin-Hartley guinea pig hepatocytes assessed as clearance at 1 uM measured per 10^6 cells and incubated upto 90 mins by LC-MS/MS analysis; format: ADME, cell-based, Cavia porcellus, Hepatocyte; settings: read-out: CLH
[10] = Metabolic stability in rat hepatocytes assessed as clearance at 1 uM measured per 10^6 cells and incubated upto 90 mins by LC-MS/MS analysis; format: ADME, cell-based, Hepatocyte; settings: read-out: CLH
[11] = Metabolic stability in human liver microsomes assessed as clearance at 1 uM measured per mg protein incubated upto 60 mins in presence of NADPH by LC-MS/MS analysis; format: ADME, Microsome; settings: read-out: CLH
[12] = Metabolic stability in rat liver microsomes assessed as clearance at 1 uM measured per mg protein incubated upto 60 mins in presence of NADPH by LC-MS/MS analysis; format: ADME, Microsome; settings: read-out: CLH
[13] = Metabolic stability in Dunkin-Hartley guinea pig lung S9 fraction assessed as half life at 1 uM measured after 0 to 60 mins in presence of NADPH by LC-MS/MS analysis; format: ADME, subcellular, Cavia porcellus; settings: time 0-60 min
[14] = Protein binding in human plasma assessed as unbound fraction at 5 uM measured after 4 hrs by LC-MS/MS analysis; format: ADME, cell-free
[15] = Protein binding in Dunkin-Hartley guinea pig plasma assessed as unbound fraction at 5 uM measured after 4 hrs by LC-MS/MS analysis; format: ADME, cell-free, Cavia porcellus
[16] = Protein binding in rat plasma assessed as unbound fraction at 5 uM measured after 4 hrs by LC-MS/MS analysis; format: ADME, cell-free
[17] = Apparent permeability across apical to basolateral side in human Caco-2 cells at 10 uM and measured after 2 hrs by LC-MS/MS analysis; format: ADME, cell-based
[18] = Apparent permeability across basolateral to apical side in human Caco-2 cells at 10 uM and measured after 2 hrs by LC-MS/MS analysis; format: ADME, cell-based
[19] = Efflux ratio of apparent permeability from basolateral to apical side over apical to basolateral side in human Caco-2 cells at 10 uM and measured after 2 hrs by LC-MS/MS analysis; format: ADME, cell-based
[20] = (§1) In vivo antagonist activity at muscarinic M3 receptor in Dunkin-Hartley guinea pig trachea assessed as inhibition of acetylcholine-induced bronchoconstriction at 3 nmol/Kg, IT(Intratracheal) measured after 1 hr in presence of ICI-118551 by Konzett-Roessler methodology relative to control; format: functional; settings: Cavia porcellus
[21] = In vivo agonist activity at beta-2 adrenoceptor in Dunkin-Hartley guinea pig trachea assessed as inhibition of histamine-induced bronchoconstriction at 3 nmol/Kg, IT(Intratracheal) measured after 1 hr by Konzett-Roessler methodology relative to control; format: functional; settings: Cavia porcellus
Trachea [22] = test: as §1, with “Bifunctional” for “In vivo”, “receptor /agonist activity at beta-2 adrenoceptor” for “receptor”, “hr” for “hr in presence of ICI-118551”; format: functional; settings: Cavia porcellus
[23] = (§2) In vivo antagonist activity at muscarinic M3 receptor in Dunkin-Hartley guinea pig trachea assessed as inhibition of acetylcholine-induced bronchoconstriction at 3 nmol/Kg, IT(Intratracheal) measured after 24 hr in presence of ICI-118551 by Konzett-Roessler methodology relative to control; format: functional; settings: Cavia porcellus
[24] = In vivo agonist activity at beta-2 adrenoceptor in Dunkin-Hartley guinea pig trachea assessed as inhibition of histamine-induced bronchoconstriction at 3 nmol/Kg, IT(Intratracheal) measured after 24 hr by Konzett-Roessler methodology relative to control; format: functional; settings: Cavia porcellus
Trachea [25] = test: as §2, with “Bifunctional” for “In vivo”, “receptor /agonist activity at beta-2 adrenoceptor” for “receptor”, “hr” for “hr in presence of ICI-118551”; format: functional; settings: Cavia porcellus
[26] = (§3) In vivo antagonist activity at muscarinic M3 receptor in Dunkin-Hartley guinea pig trachea assessed as inhibition of acetylcholine induced bronchoconstriction at 1 nmol/Kg, IT(Intratracheal) measured after 1 hr in presence of ICI-118551 by Konzett-Roessler methodology relative to control; format: functional; settings: Cavia porcellus
[27] = (§4) In vivo antagonist activity at muscarinic M3 receptor in Dunkin-Hartley guinea pig trachea assessed as inhibition of acetylcholine induced bronchoconstriction at 1 nmol/Kg, IT(Intratracheal) measured after 24 hr in presence of ICI-118551 by Konzett-Roessler methodology relative to control; format: functional; settings: Cavia porcellus
[28] = In vivo agonist activity at beta-2 adrenoceptor in Dunkin-Hartley guinea pig trachea assessed as inhibition of histamine induced bronchoconstriction at 1 nmol/Kg, IT(Intratracheal) measured after 1 hr by Konzett-Roessler methodology relative to control; format: functional; settings: Cavia porcellus
Trachea [29] = test: as §3, with “Bifunctional” for “In vivo”, “receptor /agonist activity at beta-2 adrenoceptor” for “receptor”, “hr” for “hr in presence of ICI-118551”; format: functional; settings: Cavia porcellus
Trachea [30] = test: as §4, with “Bifunctional” for “In vivo”, “receptor /agonist activity at beta-2 adrenoceptor” for “receptor”, “hr” for “hr in presence of ICI-118551”; format: functional; settings: Cavia porcellus

| Compound | half-life at 1 µM [1] | half-life at 5 µM [2] | half-life at 5 µM [3] | half-life at 5 µM [4] | Time (Trachea [5]) | IC50 (Trachea [6]) | half-life at 1 µM [7] | half-life at 1 µM [13] | inhibition in vivo at 0.003 µmol/kg [20] | inhibition in vivo at 0.003 µmol/kg [21] | inhibition in vivo at 0.003 µmol/kg (Trachea [22]) | inhibition in vivo at 0.003 µmol/kg [23] | inhibition in vivo at 0.003 µmol/kg [24] | inhibition in vivo at 0.003 µmol/kg (Trachea [25]) | other results |
| --- | --- | --- | --- | --- | --- | --- | --- | --- | --- | --- | --- | --- | --- | --- | --- |
| O=C(N[C@@H](c1ccccc1)c1cccc(OCc2ccc(C(=O)OCCCCNC[C@H](O)c3ccc(O)c4[nH]c(=O)ccc34)cc2)c1)O[C@H]1CN2CCC1CC2 | 0.44 h | < 5 min | < 0.0833 h | 1.16 h | >225 min | 0.1 nM | – | – | – | – | – | – | – | – | – |
| O=C(NC(c1ccccc1)c1cccc(OCc2ccc(C(=O)OCCCCNC[C@H](O)c3ccc(O)c4[nH]c(=O)ccc34)cc2)c1)O[C@H]1CN2CCC1CC2 (mixture of isomers) | – | < 5 min | < 0.0833 h | – | >270 min | 0.0794 nM | – | – | – | – | – | – | – | – | – |
| O=C(N[C@@H](c1ccccc1)c1cccc(OCc2ccc(CCNC[C@H](O)c3ccc(O)c4[nH]c(=O)ccc34)cc2)c1)O[C@H]1CN2CCC1CC2 (racemic) | 3.6 h | – | – | – | – | – | 3.33 h | 1.17 h | 78% | 67% | 91% | 54% | 35% | 77% | hepatocyte CLint at 1 µM [8]: 6 µL/min/1e6 cells; hepatocyte CLint at 1 µM [9]: 17 µL/min/1e6 cells; hepatocyte CLint at 1 µM [10]: 25 µL/min/1e6 cells; microsomal CLint at 1 µM [11]: 16 µL/min/mg; microsomal CLint at 1 µM [12]: 10 µL/min/mg; Fu [14]: 98%; Fu [15]: 99%; Fu [16]: 98%; Papp A→B at 2 h, 10 µM [17]: 2 ×10⁻⁶ cm/s; Papp B→A at 2 h, 10 µM [18]: 3.1 ×10⁻⁶ cm/s; efflux ratio at 2 h, 10 µM [19]: 1.5 |
| O=C(N[C@@H](c1ccccc1)c1cccc(OCc2nc(C(=O)OCCCCNC[C@H](O)c3ccc(O)c4[nH]c(=O)ccc34)co2)c1)O[C@H]1CN2CCC1CC2 | 0.583 h | < 5 min | < 0.0833 h | 1.3 h | >270 min | 0.251 nM | 2 h | > 2 h | 96.1% | 97.5% | 97.2% | 37.2% | 49.9% | 58.8% | inhibition in vivo at 0.001 µmol/kg [26]: 65.5%; inhibition in vivo at 0.001 µmol/kg [27]: 23.8%; inhibition in vivo at 0.001 µmol/kg [28]: 67.7%; inhibition in vivo at 0.001 µmol/kg (Trachea [29]): 70%; inhibition in vivo at 0.001 µmol/kg (Trachea [30]): 31.9% |
| O=C(N[C@@H](c1ccccc1)c1cccc(OCc2cccc(C(=O)OCCCCNC[C@H](O)c3ccc(O)c4[nH]c(=O)ccc34)c2)c1)O[C@H]1CN2CCC1CC2 | 0.287 h | < 5 min | 1.72 h | – | >225 min | 0.501 nM | – | – | – | – | – | – | – | – | – |
